Experimental findings from patent publication US20230091047A1 (priority 2019, published 2023) are described below.

Like-named read-outs stand apart in the source and are kept apart here.

Series [1] in a line: in vitro. Format: cell-based. Conditions: human, HepG2 or HepG2.117 cells, ATPlite, mean value. A digest of the protocol:
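Luminescent ATP quantitation served as the viability endpoint following a 3- or 4-day incubation with test compounds.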
For orientation: In ATP-based viability assays light output follows the ATP content of the culture.

The test system of series [2] is HBV (HepG2.117 cell line, inducibly HBV producing). Briefly: Anti-HBV activity: intracellular HBV DNA by real-time PCR in HepG2.117 cells after 3 days of treatment. Format: cell-based, hepatitis B virus. The essentials: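 First, HBV replication is induced in HepG2.117 cells by doxycycline absence. Next, serially diluted compound is added for 3 days. Finally, intracellular HBV DNA is quantified by HBV-specific real-time PCR.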
(Quantitative PCR measures a nucleic acid by following its amplification.)

Where [3] appears, read: 3-days incubation (not marked with *).
Where [4] appears, read: Hepatitis B virus, HepG2.117, 72 h, HepG2.117 cells, intracellular HBV DNA by real-time PCR, 3 days of treatment, mean value; read-out: EC50 (μM, mean value).
[5] abbreviates: 3-days incubation (unmarked values).
Setting [6] is: Hepatitis B virus, HepG2.117, 72 h, HepG2.117 cells, 3 days of treatment, intracellular HBV DNA by real-time PCR; mean value; read-out: EC50 (μM, mean value).

Take `CC(C)Nc1nc2c(c(=O)n1-c1ccc(-n3cnnn3)cc1)C[C@@H](C)N(C(=O)c1ccc(Cl)c(Cl)c1)C2` [Compound C460]: in series [1] (setting [3]), the CC50 (commonly the concentration at which the toxic effect on the cells reaches its halfway point) at 3 days was greater than 50 µM. In series [2] (setting [4]), the EC50 (in general, the concentration giving half of the maximal effect) is 0.09 µM.

In the case of `CNC(=O)c1ccc(-n2c(N[C@@H](C)c3cccc(F)c3)nc3c(c2=O)C[C@@H](C)N(C(=O)c2ccc(Cl)c(Cl)c2)C3)cc1` [Compound C306, 4-[(6R)-7-(3,4-dichlorobenzoyl)-2-{[(1S)-1-(3-fluorophenyl)ethyl]amino}-6-methyl-4-oxo-5,6,7,8-tetrahydropyrido[3,4-d]pyrimidin-3(4H)-yl]-N-methylbenzamide], in series [1] (setting [5]), the CC50 at 3 days was determined as 19.3 µM. Also, in series [2] (setting [6]), the EC50 came out at 0.08 µM.

In turn, `CNC(=O)c1ccc(-n2c(NCC(n3cncn3)C(F)(F)F)nc3c(c2=O)C[C@@H](C)N(C(=O)c2ccc(Cl)c(Cl)c2)C3)cc1` (some centres unmarked) [Compound C601] registered a CC50 at 3 days in series [1] (setting [3]) greater than 50 µM. The EC50 in series [2] (setting [4]) was 7.71 µM.

Consider `CNC(=O)c1ccc(-n2c(N[C@H](C)C3CC3)nc3c(c2=O)C[C@@H](C)N(C(=O)c2ccc(Cl)c(Cl)c2)C3)cc1` [Compound C295, 4-[(6R)-2-{[(1R)-1-cyclopropylethyl]amino}-7-(3,4-dichlorobenzoyl)-6-methyl-4-oxo-5,6,7,8-tetrahydropyrido[3,4-d]pyrimidin-3(4H)-yl]-N-methylbenzamide], for which it took 37.2 µM to reach half-maximal cytotoxicity in series [1] (setting [5]) (CC50 at 3 days). Moreover, the EC50 in series [2] (setting [6]) came out at 0.22 µM.

In series [1] (setting [3]), `CNC(=O)c1ccc(-n2c(N[C@@H](C)c3ccc4c(ccn4C)c3)nc3c(c2=O)C[C@@H](C)N(C(=O)c2ccc(Cl)c(Cl)c2)C3)cc1` (single isomer, unassigned) [Compound C450b] registered a CC50 at 3 days greater than 50 µM. Also, the EC50 in series [2] (setting [4]) worked out at 0.18 µM.

Regarding `CC(C)Nc1nc2c(c(=O)n1-c1ccc(S(=O)(=O)Nc3ccccn3)cc1)C[C@@H](C)N(C(=O)c1ccc(Cl)c(Cl)c1)C2` [Compound C400], the CC50 at 3 days in series [1] (setting [3]) is greater than 50 µM. Besides, the EC50 in series [2] (setting [4]) turned out to be 1.15 µM.

In series [1] (setting [5]), `Cc1ncccc1-n1c(NC(C)C)nc2c(c1=O)CCN(C(=O)c1ccc(Cl)c(Cl)c1)C2` [Compound C99, 7-(3,4-dichlorobenzoyl)-3-(2-methylpyridin-3-yl)-2-[(propan-2-yl)amino]-5,6,7,8-tetrahydropyrido[3,4-d]pyrimidin-4(3H)-one] returned a cytotoxic concentration (CC50) at 3 days of 28.3 µM. In addition, the EC50 in series [2] (setting [6]) stood at 2.05 µM.

In the case of `CNC(=O)c1ccc(-n2c(NC(C)C)nc3c(c2=O)C[C@@H](C)N(C(=O)c2ccc(Cl)c(Cl)c2)C3)cc1Cl` [Compound C338, 2-chloro-4-[(6R)-7-(3,4-dichlorobenzoyl)-6-methyl-4-oxo-2-[(propan-2-yl)amino]-5,6,7,8-tetrahydropyrido[3,4-d]pyrimidin-3(4H)-yl]-N-methylbenzamide], in series [1] (setting [5]), the CC50 at 3 days is greater than 50 µM. The EC50 in series [2] (setting [6]) is 0.1 µM.

Consider `COc1ccccc1-n1c(N)nc2c(c1=O)CC(C)N(C(=O)c1ccc(Cl)c(Cl)c1)C2` (centres unmarked) [Compound C95, 2-amino-7-(3,4-dichlorobenzoyl)-3-(2-methoxyphenyl)-6-methyl-5,6,7,8-tetrahydropyrido[3,4-d]pyrimidin-4(3H)-one], for which, in series [1] (setting [5]), the CC50 at 3 days is greater than 50 µM. Further, the EC50 in series [2] (setting [6]) came out at 1.02 µM.

With `CNC(=O)c1ccc(-n2c(NC(C)C)nc3c(c2=O)C[C@@H](C)N(C(=O)c2ccc(Cl)c(Cl)c2)C3)c(OC)c1` (single isomer, unassigned) [Compound C314a], the CC50 at 3 days in series [1] (setting [5]) was greater than 50 µM. In addition, the EC50 in series [2] (HepG2.117 cells, 3 days of treatment, intracellular HBV DNA by real-time PCR; mean value; read-out: EC50 (μM, mean value)) worked out at 0.1 µM.

`CNC(=O)c1ccc(-n2c(NC(C)C)nc3c(c2=O)C[C@@H](C)N(C(=O)c2ccc(Cl)c(C)c2)C3)cc1` [Compound C429]: in series [1] (setting [3]), the CC50 at 3 days is greater than 50 µM. In series [2] (setting [4]), the EC50 was determined as 0.06 µM.

For `COc1ccccc1-n1c(NC(C)c2ccncc2)nc2c(c1=O)CCN(C(=O)c1ccc(Cl)c(Cl)c1)C2` (centres unmarked) [Compound C56, 7-(3,4-dichlorobenzoyl)-3-(2-methoxyphenyl)-2-{[1-(pyridin-4-yl)ethyl]amino}-5,6,7,8-tetrahydropyrido[3,4-d]pyrimidin-4(3H)-one], the CC50 at 3 days in series [1] (setting [5]) was greater than 50 µM. Moreover, the EC50 in series [2] (setting [6]) amounted to 1.93 µM.

As to `CC(C)Nc1nc2c(c(=O)n1-c1ccc(S(C)(=O)=O)cc1)CCN(C(=O)c1ccc(C(F)(F)F)c(Cl)c1)C2` [Compound C194, 7-[3-chloro-4-(trifluoromethyl)benzoyl]-3-[4-(methanesulfonyl)phenyl]-2-[(propan-2-yl)amino]-5,6,7,8-tetrahydropyrido[3,4-d]pyrimidin-4(3H)-one], the CC50 at 3 days in series [1] (setting [5]) is greater than 50 µM. Moreover, the EC50 in series [2] (setting [6]) amounted to 0.55 µM.

As to `CNC(=O)c1ccc(-n2c(NC(C)c3cccs3)nc3c(c2=O)C[C@@H](C)N(C(=O)c2ccc(Cl)c(Cl)c2)C3)cc1` (some centres unmarked) [Compound C550], in series [1] (setting [3]), the CC50 at 3 days stood at 30.2 µM. Besides, the EC50 in series [2] (setting [4]) amounted to 0.54 µM.

`CNC(=O)c1cc(C)c(-n2c(NC(C)C)nc3c(c2=O)C[C@@H](C)N(C(=O)c2ccc(Cl)c(Cl)c2)C3)c(C)c1` [Compound C391] displayed a CC50 at 3 days in series [1] (setting [3]) greater than 50 µM. In addition, the EC50 in series [2] (setting [4]) worked out at 0.18 µM.

The compound `CCC(C)Nc1nc2c(c(=O)n1-c1ccccc1OC)CCN(C(=O)c1ccc(Cl)c(Cl)c1)C2` (centres unmarked) [Compound C49, 2-[(butan-2-yl)amino]-7-(3,4-dichlorobenzoyl)-3-(2-methoxyphenyl)-5,6,7,8-tetrahydropyrido[3,4-d]pyrimidin-4(3H)-one] displayed a 50% cytotoxic concentration (CC50) at 3 days in series [1] (setting [5]) of 26.8 µM. In series [2] (setting [6]), the EC50 came out at 2.41 µM.

Consider `CC(C)Nc1nc2c(c(=O)n1-c1ccc(-c3nnc[nH]3)cc1)C[C@@H](C)N(C(=O)c1ccc(Cl)c(Cl)c1)C2` [Compound C610], for which the CC50 at 3 days in series [1] (setting [3]) was greater than 50 µM. Moreover, the EC50 in series [2] (setting [4]) was found to be 0.17 µM.

Consider `COc1ccccc1-n1c(N)nc2c(c1=O)CCN(C(=O)c1ccc(Cl)c(Cl)c1)C2` [Compound C57, 2-amino-7-(3,4-dichlorobenzoyl)-3-(2-methoxyphenyl)-5,6,7,8-tetrahydropyrido[3,4-d]pyrimidin-4(3H)-one], for which the CC50 at 3 days in series [1] (setting [5]) is greater than 50 µM. The EC50 in series [2] (setting [6]) was determined as 0.91 µM.

Turning to `CNc1nc2c(c(=O)n1-c1ccccc1OC)CCN(C(=O)c1ccc(Cl)c(Cl)c1)C2` [Compound C11, 7-(3,4-dichlorobenzoyl)-3-(2-methoxyphenyl)-2-(methylamino)-5,6,7,8-tetrahydropyrido[3,4-d]pyrimidin-4(3H)-one], in series [1] (4-days incubation (values marked with *)), the CC50 at 4 days was greater than 50 µM. In addition, in series [2] (setting [6]), the EC50 worked out at 6.41 µM.

Turning to `C[C@H](Nc1nc2c(c(=O)n1-c1ccc(-n3cccn3)cc1)C[C@@H](C)N(C(=O)c1ccc(Cl)c(Cl)c1)C2)c1ccc(C(F)(F)F)cc1` [Compound C532], in series [1] (setting [3]), the half-maximal cytotoxic concentration (CC50) at 3 days was greater than 50 µM. For the same compound, the EC50 in series [2] (setting [4]) came out at 0.16 µM.

With `C[C@@H]1Cc2c(nc(N[C@H](C)c3ccc(OC(F)(F)F)cc3)n(-c3ccc(-n4cccn4)cc3)c2=O)CN1C(=O)c1ccc(Cl)c(Cl)c1` (single isomer, unassigned) [Compound C463a], the CC50 at 3 days in series [1] (setting [3]) was greater than 50 µM. For the same compound, the EC50 in series [2] (setting [4]) came out at 0.24 µM.

Regarding `CNC(=O)c1cc(-n2c(NC(C)C)nc3c(c2=O)C[C@@H](C)N(C(=O)c2ccc(Cl)c(Cl)c2)C3)[nH]n1` [Compound C355, 5-[(6R)-7-(3,4-dichlorobenzoyl)-6-methyl-4-oxo-2-[(propan-2-yl)amino]-5,6,7,8-tetrahydropyrido[3,4-d]pyrimidin-3(4H)-yl]-N-methyl-1H-pyrazole-3-carboxamide], in series [1] (setting [5]), it took 34.2 µM to reach half-maximal cytotoxicity (CC50 at 3 days). The EC50 in series [2] (setting [6]) was found to be 0.09 µM.

On to `COc1ccc(CNc2nc3c(c(=O)n2-c2cnccc2C)CCN(C(=O)c2ccc(Cl)c(Cl)c2)C3)cc1` [Compound C113, 7-(3,4-dichlorobenzoyl)-2-{[(4-methoxyphenyl)methyl]amino}-3-(4-methylpyridin-3-yl)-5,6,7,8-tetrahydropyrido[3,4-d]pyrimidin-4(3H)-one], for which the CC50 at 3 days in series [1] (setting [5]) was 19.4 µM. The EC50 in series [2] (setting [6]) came out at 0.65 µM.

Consider `CNC(=O)c1ccc(-n2c(NC(C)C)nc3c(c2=O)C[C@@H](C)N(C(=O)c2ccc(Cl)c(C(F)F)c2)C3)c(Cl)c1` (single isomer, unassigned) [Compound C685a], for which the CC50 at 3 days in series [1] (setting [3]) was greater than 50 µM. The EC50 in series [2] (setting [4]) was found to be 0.03 µM.

`CC(C)Nc1nc2c(c(=O)n1-c1ccc3c(c1)CNC3=O)C[C@@H](C)N(C(=O)c1ccc(Cl)c(Cl)c1)C2` [Compound C231, (6R)-7-(3,4-dichlorobenzoyl)-6-methyl-3-(1-oxo-2,3-dihydro-1H-isoindol-5-yl)-2-[(propan-2-yl)amino]-5,6,7,8-tetrahydropyrido[3,4-d]pyrimidin-4(3H)-one] showed a CC50 at 3 days in series [1] (setting [5]) greater than 50 µM. Also, the EC50 in series [2] (setting [6]) turned out to be 0.15 µM.

In the case of `COc1ccc(CNc2nc3c(c(=O)[nH]2)C[C@@H](C)N(C(=O)c2ccc(Cl)c(Cl)c2)C3)cc1` [Compound C63A, (6R)-7-(3,4-dichlorobenzoyl)-2-{[(4-methoxyphenyl)methyl]amino}-6-methyl-5,6,7,8-tetrahydropyrido[3,4-d]pyrimidin-4(3H)-one], the CC50 at 3 days in series [1] (setting [5]) was 30.4 µM. Moreover, the EC50 in series [2] (setting [6]) was 3.58 µM.

Consider `CCc1cc(C(=O)NC)ccc1-n1c(NC(C)C)nc2c(c1=O)C[C@@H](C)N(C(=O)c1ccc(Cl)c(Cl)c1)C2` (single isomer, unassigned) [Compound C383a], for which, in series [1] (setting [3]), the CC50 at 3 days is greater than 50 µM. In addition, the EC50 in series [2] (setting [4]) stood at 0.32 µM.

In turn, `CC(C)Nc1nc2c(c(=O)n1-c1ccc(-c3cnc[nH]3)cc1)C[C@@H](C)N(C(=O)c1ccc(Cl)c(Cl)c1)C2` [Compound C213, (6R)-7-(3,4-dichlorobenzoyl)-3-[4-(1H-imidazol-5-yl)phenyl]-6-methyl-2-[(propan-2-yl)amino]-5,6,7,8-tetrahydropyrido[3,4-d]pyrimidin-4(3H)-one] gave a CC50 at 3 days in series [1] (setting [5]) greater than 50 µM. Also, the EC50 in series [2] (setting [6]) was 0.36 µM.
